Where two headings read alike, the source gives them in different places.
Columns and labels:
[1] = biological target: GSK3α (GST-full length GSK3α) (Homo sapiens (Human), UniProt P49840); assay: GSK3α TR-FRET kinase assay; assay type: biochemical
Summary of the method: (§1)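 Full-length GST-tagged human enzyme (1 nM) is exposed to test compound for 30 min before substrates are added. Phosphorylation of a primed biotinylated glycogen synthase peptide proceeds 100 min at room temperature at low ATP (4 μM α; 2 μM β) or high ATP (1 mM). Product is quantified by TR-FRET.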

[2] = biological target: GSK3b (GST-full length GSK3b) (Homo sapiens (Human), UniProt P49841); assay: GSK3b TR-FRET kinase assay; assay type: biochemical
Summary of the method: as §1

[3] = 1 nM GSK3α, 4 μM ATP, 30 minute preincubation, Table 16, read-out: GSK3-A TR-FRET BIOCHEMICAL (TR-FRET)
[4] = 1 nM GSK3b, 2 μM ATP, 30 minute preincubation, Table 16, read-out: GSK3-B TR-FRET BIOCHEMICAL (TR-FRET)
[5] = read-out: GSK3-A (TR-FRET 1 mM ATP), GMean, IC50, 1 mM ATP, geometric mean
[6] = read-out: GSK3-B (TR-FRET 1 mM ATP), GMean, IC50, 1 mM ATP, geometric mean
[7] = 1 nM GSK3α, 4 μM ATP, 30 minute preincubation, read-out: GSK3-A TR-FRET BIOCHEMICAL (TR-FRET), IC50
[8] = 1 nM GSK3b, 2 μM ATP, 30 minute preincubation, read-out: GSK3-B TR-FRET BIOCHEMICAL (TR-FRET), IC50

Chain of GSK3b (GST-full length GSK3b) (P49841 whole entry): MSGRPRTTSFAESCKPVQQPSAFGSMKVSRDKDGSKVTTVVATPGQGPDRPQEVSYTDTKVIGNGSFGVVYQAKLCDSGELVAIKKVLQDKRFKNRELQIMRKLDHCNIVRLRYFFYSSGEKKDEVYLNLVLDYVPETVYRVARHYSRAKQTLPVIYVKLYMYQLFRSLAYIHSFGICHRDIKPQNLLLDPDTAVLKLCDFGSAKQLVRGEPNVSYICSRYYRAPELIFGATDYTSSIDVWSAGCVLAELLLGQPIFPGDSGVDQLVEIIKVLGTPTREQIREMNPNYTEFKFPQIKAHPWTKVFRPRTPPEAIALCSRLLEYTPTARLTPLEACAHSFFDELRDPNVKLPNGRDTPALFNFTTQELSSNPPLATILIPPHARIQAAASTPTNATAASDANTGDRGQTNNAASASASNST
Chain of GSK3α (GST-full length GSK3α) (P49840 whole entry): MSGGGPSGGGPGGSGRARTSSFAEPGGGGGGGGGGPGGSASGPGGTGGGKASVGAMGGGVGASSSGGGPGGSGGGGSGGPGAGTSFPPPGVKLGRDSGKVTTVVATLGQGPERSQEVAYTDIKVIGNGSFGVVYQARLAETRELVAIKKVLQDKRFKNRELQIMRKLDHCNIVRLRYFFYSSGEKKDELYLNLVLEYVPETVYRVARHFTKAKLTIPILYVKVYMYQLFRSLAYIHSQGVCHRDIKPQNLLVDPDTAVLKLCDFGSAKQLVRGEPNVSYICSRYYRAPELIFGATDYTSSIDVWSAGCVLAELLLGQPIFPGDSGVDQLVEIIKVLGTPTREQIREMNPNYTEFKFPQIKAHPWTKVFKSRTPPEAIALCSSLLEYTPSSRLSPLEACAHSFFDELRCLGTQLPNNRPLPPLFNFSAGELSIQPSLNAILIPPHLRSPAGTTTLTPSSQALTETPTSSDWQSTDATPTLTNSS

| SMILES | IC50 [1, 3] [nM] | IC50 [2, 4] [nM] | IC50 [1, 5] [nM] | IC50 [2, 6] [nM] | IC50 [1, 7] [nM] | IC50 [2, 8] [nM] |
| --- | --- | --- | --- | --- | --- | --- |
| Cn1ccc(S(=O)(=O)N2CC[C@@]3(C2)C2=C(CC(C)(C)CC2=O)Nc2n[nH]cc23)n1 [Compound 945714] | ≤ 100 | ≤ 100 |  |  |  |  |
| CC[C@]1(c2cccc(S(=O)(=O)C3CC3)c2)C2=C(CC(C)(C)CC2=O)Nc2n[nH]c(C(F)(F)F)c21 [Compound 945715] | ≤ 100 | ≤ 100 |  |  |  |  |
| CC1(C)CC(=O)C2=C(C1)Nc1n[nH]cc1[C@@]21CCN(S(=O)(=O)c2ccccc2F)C1 [Compound 945719] | ≤ 100 | ≤ 100 |  |  |  |  |
| CC[C@]1(c2cccc(-c3ccncc3O)c2)C2=C(CC(C)(C)CC2=O)Nc2n[nH]cc21 [Compound 945724] | ≤ 100 | ≤ 100 | 100 to 1000 | 1000 to 5000 |  |  |
| CCC1(c2cccc(-c3cncn3C(C)C)c2)C2=C(CC(C)(C)CC2=O)Nc2n[nH]cc21 (centres unmarked) [Compound 945725] |  |  | ≤ 100 | 100 to 1000 |  |  |
| CCc1cccc(N(C)c2cccc([C@]3(CC)C4=C(CC(C)(C)CC4=O)Nc4n[nH]cc43)c2)n1 [Compound 945726] | 1000 to 5000 | > 5000 |  |  |  |  |
| CC[C@]1(c2cccc(-c3cnn(C)c3C)c2)C2=C(CC(C)(C)NC2=O)Nc2n[nH]c(C)c21 [Compound 945727] |  |  |  |  | > 5000 | > 5000 |
| CC[C@@]1(c2cccc(-c3ccncc3O)c2)C2=C(CC(C)(C)CC2=O)Nc2n[nH]cc21 [Compound 945728] | 1000 to 5000 | > 5000 |  |  |  |  |
| CC1(C)CC(=O)C2=C(C1)Nc1n[nH]cc1[C@@]21CCC[C@@H](C#N)C1 [Compound 945906] | 100 to 1000 | 100 to 1000 |  |  |  |  |
| CCC1(c2cccc(C(F)(F)F)c2)C2=C(CC(C(C)(C)C)NC2=O)Nc2n[nH]cc21 (centres unmarked) [Compound 945921] |  |  |  |  | 1000 to 5000 | > 5000 |
| CC[C@]1(c2cccc(C(F)(F)F)c2)C2=C(C[C@@H](C(C)(C)C)NC2=O)Nc2n[nH]cc21 [Compound 945922] |  |  |  |  | ≤ 100 | 100 to 1000 |
| CCC1(c2cccc(C(F)(F)F)c2)C2=C(CC(C(C)(C)C)NC2=O)Nc2n[nH]cc21 (centres unmarked) [Compound 945923] |  |  |  |  | > 5000 | > 5000 |
| CCC1(c2cccc(Oc3cncnc3)c2)C2=C(CC(C)(C)CC2=O)Nc2n[nH]cc21 (centres unmarked) [Compound 945939] | 100 to 1000 | > 5000 |  |  |  |  |
| CCC1(c2cccc(Nc3ncccn3)c2)C2=C(CC(C)(C)CC2=O)Nc2n[nH]cc21 (centres unmarked) [Compound 945943] | ≤ 100 | 100 to 1000 |  |  |  |  |
| CCC1(c2cccc(Nc3ncccn3)c2)C2=C(CC(C)(C)CC2=O)Nc2n[nH]cc21 (centres unmarked) [Compound 945958] | 1000 to 5000 | > 5000 |  |  |  |  |
| CCC1(c2cccc(-c3ccnc(CCO)c3)c2)C2=C(CC(C)(C)CC2=O)Nc2n[nH]cc21 (centres unmarked) [Compound 945992] | ≤ 100 | 100 to 1000 |  |  |  |  |
| CCC1(c2cccc(-c3ccnc(C)c3C)c2)C2=C(CC(C)(C)NC2=O)Nc2n[nH]cc21 (centres unmarked) [Compound 945994] |  |  |  |  | ≤ 100 | 100 to 1000 |
| CC[C@]1(c2cccc(-c3cc(C)ncc3OC)c2)C2=C(CC(C)(C)CC2=O)Nc2n[nH]cc21 [Compound 945995] | ≤ 100 | ≤ 100 | 100 to 1000 | 1000 to 5000 |  |  |
| CC[C@]1(c2cccc(-c3ccnc(C)c3OC)c2)C2=C(CC(C)(C)CC2=O)Nc2n[nH]cc21 [Compound 945997] | ≤ 100 | ≤ 100 | 100 to 1000 | 1000 to 5000 |  |  |
| CCC1(c2cccc(S(=O)(=O)C3COC3)c2)C2=C(CC(C)(C)CC2=O)Nc2n[nH]cc21 (centres unmarked) [Compound 945998] | ≤ 100 | ≤ 100 |  |  |  |  |
| CC[C@]1(c2cccc(S(=O)(=O)C3CC3)c2)C2=C(CC(C)(C)NC2=O)Nc2n[nH]cc21 [Compound 945999] |  |  |  |  | ≤ 100 | ≤ 100 |
| CCC1(c2cccc(S(=O)(=O)C3COC3)c2)C2=C(CC(C)(C)CC2=O)Nc2n[nH]cc21 (centres unmarked) [Compound 946003] | 100 to 1000 | > 5000 |  |  |  |  |
| CCC1(c2cccc(S(=O)(=O)C3CC3)c2)C2=C(CC(C)(C)NC2=O)Nc2n[nH]cc21 (centres unmarked) [Compound 946004] |  |  |  |  | 100 to 1000 | > 5000 |
| CC[C@@]1(c2ccccc2)C2=C(CC(C)(C)C(O)C2=O)Nc2n[nH]cc21 (some centres unmarked) [Compound 946056] | 100 to 1000 | > 5000 |  |  |  |  |
| CC1(C)CC(=O)C2=C(C1)Nc1n[nH]cc1[C@@]21CO[C@H](c2ccccc2)C1 [Compound 946072] | ≤ 100 | 100 to 1000 |  |  |  |  |

— patent US20250313563A1, “GLYCOGEN SYNTHASE KINASE 3 INHIBITORS AND USES THEREOF” (The Broad Institute, Inc., priority 2022, published 2025)
